This is an account of results in article PMC11378297, “Discovery and Profiling of New Multimodal Phenylglycinamide Derivatives as Potent Antiseizure and Antinociceptive Drug Candidates” (ACS Chemical Neuroscience, 2024).

Like-named read-outs stand apart in the source and are kept apart here. Marks after values point to notes of the source that are not given here. Some results are limits rather than exact numbers.

The subject of data set [1] is 6 Hz (32 mA) seizures, mice. The note with it: i.p., cited from earlier work.
Data set [2] concerns mice (motor coordination). As to conditions: racemates, chimney test, i.p.; cited from earlier work.
Data set [3] deals with maximal electroshock (MES) seizures, mice. As to conditions: i.p., cited from earlier work.
The test system of data set [4] is 6 Hz (44 mA) seizures, mice. The note with it: i.p., cited from earlier work.
The test system of data set [5] is mice (motor coordination). The note with it: reference ASMs, rotarod test, i.p.; cited from earlier work.
Data set [6] concerns glutamate and GABA concentrations in brain. Kind of data set: glutamate and GABA concentrations in hippocampus and cortex of PTZ-kindled mice. The data set is classed as in vivo, mouse. The text has this: After behavioral tests (FST, PTZ-induced kindling), we determined the changes in glutamate and GABA concentrations in the hippocampus and cortex. Since exposure to the FST can evoke various neurochemical alterations, two additional groups were employed in this experiment, i.e., control nonkindled mice that were exposed to the FST and naïve mice. No marked differences in both glutamate and GABA concentrations in the hippocampus were observed (Figure 5A). […] We found a significant increase in glutamate concentration in the cortex of mice subjected to the FST (p < 0.05 vs naive mice). […] Given that seizures are typically accompanied by elevated extracellular glutamate levels (an excitatory neurotransmitter), a decreased glutamate concentration in the cortex of kindled animals may appear to be an unexpected outcome. It should be highlighted, however, that the concentrations of glutamate and GABA in tissue homogenates rather than dialysate were measured in brain samples acquired 24 h following the previous PTZ dose, which may have an impact on the outcomes. On the other hand, decreased glutamate levels could be caused by the up-regulation of glutamate transporters, as the expression of glutamate transporters can increase following seizures.[48] For example, an increased expression of hippocampal GLT-1 was observed 24 h after kainic acid-induced status epilepticus in mice and PTZ-induced kindling in rats.[49] Moreover, similar to our findings, Szyndler et al.([50]) found decreased glutamate concentrations, with no changes in GABA concentrations, in homogenates of the hippocampus, striatum, and prefrontal cortex of PTZ-kindled rats.
Figure 5 Changes in glutamate and GABA concentrations in the hippocampus (A) and cortex (B). Data are shown as means + SD (n = 9–14 animals). Statistical significance was evaluated by one-way ANOVA followed by Tukey’s post hoc test: *p < 0.05, **p < 0.01, ***p < 0.001 (GraphPad Prism 8.4.3).
GABA and glutamate concentrations were determined using liquid chromatography tandem mass spectrometry (LC-MS/MS) in the mouse prefrontal cortex and hippocampus. Toronto Research Chemicals Inc. was the source of the standards for both analytes (Toronto, ON, Canada). GABA and glutamate stock standard solutions were made in methanol and deionized water, respectively, and kept cold at 4 °C. The stock solutions were suitably diluted to create a range of solution combinations with the appropriate concentrations. Prior to analysis, a hand-held pestle and glass tube homogenizer (Potter–Elvehjem PTFE pestle and glass tube, Sigma-Aldrich, St. Louis, MO, USA) were used to homogenize mouse brains in distilled water at a ratio of 50 μL/mg. Following a 10 min centrifugation at 8000g for 10 min at 4 °C, homogenates were diluted 10 times with 0.1% formic acid in MeCN from the supernatant. Samples (10 μL) were deproteinized with 80 μL of 0.1% formic acid in MeCN by shaking for 10 min (IKA Vibrax VXR, IKA Werke GmbH & Co. KG, Staufen im Breisgau, Germany) and centrifuged for 5 min at the speed of 8000g (Eppendorf miniSpin centrifuge) after isotope-labeled GABA-d6 and glutamate-d5 (Toronto Research Chemicals Inc., Toronto, ON, Canada) were added as internal standards (10 μL at the concentration of 500 ng/mL). The autosampler vials were filled with the acquired supernatants. […]

In data set [7] the test system is capsaicin-induced pain, mice. The arrangement: method as in PMID 28934547. As to conditions: 200 mg/kg; cited from earlier work.
Data set [8] deals with formalin-induced pain, mice. The arrangement: method as in PMID 28934547. As to conditions: previously tested in the authors' laboratory; cited from earlier work.
Data set [9] deals with PTZ-induced kindling, mice. Put plainly: PTZ-induced kindling model. The format is in vivo, mouse. As to conditions: 150 mg/kg i.p. repeatedly, positive control. As to the method: We investigated the impact of lead compound (R)-32 on PTZ-induced kindling in mice to further assess its antiseizure potential (Figure 3). […] The PTZ-induced kindling model is widely recognized as a useful method to induce chronic increase in susceptibility to epileptic seizures.
Figure 3 Effect of repeated treatment with (R)-32 in PTZ-induced kindling model in mice. […] Data are presented as means of seizure severity (n = 10–15 animals). Statistical significance was evaluated by a mixed effects model for repeated measures followed by Tukey’s post hoc test: **p < 0.01, […] vs control group (GraphPad Prism 8.4.3).
The procedure was performed as described in detail in our previous studies.[88],[89] […] Seizures were induced three times a week by i.p. administration of PTZ at a subconvulsive dose of 40 mg/kg. […] The seizure severity was scored using the modified Racine’s scale. […] The locomotor activity test, the elevated plus maze test, and the FST were performed 24 h after the last PTZ injection, according to the methods described in detail elsewhere. After completion of behavioral tests, animals were sacrificed. Hippocampi and cortices were dissected from the brains, frozen, and stored at −80 °C until assay. Following each PTZ injection, the mean seizure severity scores were determined for each experimental group. A mixed effects model for repeated measurements was used for analysis, along with Tukey’s post hoc test. The percentage of fully kindled mice was compared using Fisher’s exact probability test.

Data set [10] has as its system mature-BDNF (mBDNF) expression. Kind of data set: mBDNF expression in hippocampus and cortex of PTZ-kindled mice (Western blot). The data set is classed as in vivo, mouse. As to conditions: VPA repeated (150 mg/kg), p < 0.01 vs PTZ kindling control. The text has this: However, there are also few reports showing opposite findings.[51],[52] […] No changes in the expression of the nerve growth factor (NGF) were observed (Figure 6D–F).
Figure 6 Changes in mature-BDNF (mBDNF) expression in hippocampus (A) and cortex (C) and in proNGF expression in hippocampus (D) and cortex (F) with representative immunoblots, together with total protein amount visualized by the stain-free technique (B,E). Data are shown as means of relative expressions + SD (n = 8). Statistical significance was evaluated by one-way ANOVA followed by Tukey’s post hoc test: **p < 0.01 (GraphPad Prism 8.4.3).
The Western Blot method was used to assess the expression of proNGF and mBDNF in the mouse brain and hippocampal tissues. Using a bead homogenizer (Bead Ruptor Elite, Omni International, USA), the cortical and hippocampal regions of the mouse brain were weighted and homogenized at a ratio of 9 μL/mg in 2% SDS supplemented with a cocktail of protease (Thermo Scientific, Walthman, MA, USA) and phosphatase inhibitors (Sigma-Aldrich, St. Louis, MO, USA). Samples were then centrifuged at 10,000g for 10 min at 4 °C after being denatured for 10 min at 95 °C. […] One-way ANOVA with Tukey’s post hoc test was utilized to examine changes in the relative expression of the proteins that were evaluated.
For orientation: In western blotting, separated proteins are transferred to a membrane and probed.

The nature of data set [11]: hepatotoxicity, HepG2 cell viability. The format is cell-based, human. As to conditions: human, HepG2 hepatoma cells; 1 μM, 72 h of incubation (Figure 11).
Procedure: The hepatotoxicity potential was assessed with the HepG2 cell line and the reference cytostatic drug doxorubicin.
The results are presented as means + SD. Statistical significance was evaluated by one-way ANOVA, followed by Bonferroni’s multiple comparison post hoc test (Graph Pad Prism 8.0.1 software, San Diego, CA, USA): *p < 0.05, ***p < 0.001, ****p < 0.0001 vs negative control (DMSO 1% in growth media).
Setting [12] is: racemates, pretreatment time 0.5 h.
Where [13] appears, read: reference ASMs, pretreatment time 0.5 h (LCS, VPA) or 1.0 h (LEV, CBD).

As for `CC(=O)NC(C(=O)N1CCN(c2cccc(C(F)(F)F)c2)CC1)c1ccccc1` (stereo not drawn) [KJ-5], in data set [1] (setting [12]), the “ED50 6 Hz (32 mA)” value is 29.9 mg/kg. The TD50 in data set [2] was 179.7 ^b mg/kg. In addition, in [3] (setting [12]), the “ED50 MES” value is 89.7 mg/kg. Further, the “ED50 6 Hz (44 mA)” value in data set [4] (setting [12]) was 68.0 mg/kg.

On to `CC[C@@H](C(N)=O)N1CCCC1=O` [LEV, levetiracetam], for which the “ED50 MES” value in data set [3] (reference ASMs, pretreatment time 0.5 h (LCS, VPA) or 1.0 h (LEV, CBD), literature or own experiments) is on record as greater than 500 mg/kg. Also, in [4] (setting [13]), the “ED50 6 Hz (44 mA)” value is given as 204.0 mg/kg. Moreover, in data set [5], the TD50 is recorded as >500 ^c mg/kg.

With `CCCC(CCC)C(=O)O` [VPA, valproic acid, reference compound], the “GABA concentration in the cortex” value in [6] (150 mg/kg, p < 0.05 vs PTZ-kindled control group) is reported as “significantly decreased”. In data set [6] (vs nonkindled FST control group), the “glutamate concentration in the hippocampus” value was “slight decrease”. Further, in [7], the “activity in capsaicin-induced pain” value is recorded as “active only at the highest administered dose”. Also, the “ED50 6 Hz (32 mA)” value in data set [1] (setting [13]) was 130.6 mg/kg. Also, the “ED50 in the late phase of the formalin test” value in data set [8] is given as 132.9 mg/kg. In data set [9], the “effect on kindling progression” value is “suppressed kindling progression”. Also, the “mBDNF protein expression in the hippocampus (PTZ kindling-induced overexpression)” value in data set [10] is on record as “reversed the overexpression”.

On to `COc1cccc2c1C(=O)c1c(O)c3c(c(O)c1C2=O)C[C@@](O)(C(=O)CO)C[C@@H]3O[C@H]1C[C@H](N)[C@H](O)[C@H](C)O1` [doxorubicin, reference compound], for which the viability (as a rule, a read-out of living cells in per cent, often relative to untreated cells) at 72 h, 1 µM in data set [11] was roughly 20%.
